Data reported in article PMC9299640, “Incorporation of β‐Alanine in Cu(II) ATCUN Peptide Complexes Increases ROS Levels, DNA Cleavage and Antiproliferative Activity” (Chemistry (Weinheim an Der Bergstrasse, Germany), 2021).

Legend:
CT-DNA = experiment: DNA melting curves by UV/VIS spectroscopy; assay type: binding, calf
HCT116 cells = experiment: Cellular uptake of Cu by ICP-MS; assay type: cell-based, human; conditions: 70 µM, 24 h, 37 °C, 5% CO2, 4 × 10^5 cells/well, HNO3 lysis, corrected for cell-free wells, n = 3
Experimental: We aimed to correlate the antiproliferative activity to the accumulation of Cu in HCT116 cells. Therefore, cells were treated for 24 h with complexes Cu−GGH, 1, 3, 4 and CuCl2 (70 μM), and the Cu content of the samples was determined by ICP‐MS (Table S13). […] The higher Cu contents probably lead to enhanced oxidative stress levels in cells, which consequently results in higher antiproliferative activity.
The antiproliferative activity of selected Cu(II) ATCUN complexes was investigated towards different tumor cell lines (HCT116, NCI-H460, SiHa and SW480 cells) and expressed as the IC50 values. Additionally, cellular uptake studies in HCT116 tumor cells were carried out and the amount of Cu was determined with inductively coupled plasma mass spectrometry (ICP-MS).
Table S13. […]
with 0.4% sulforhodamine B (Sigma-Aldrich) in 1% acetic acid for 30 min in the dark at room temperature and then washed with 1% acetic acid to remove unbound dye. The stain was dissolved in unbuffered Tris base (10 mM, Serva) for 30 min on a plate shaker in the dark and quantified on a BioTek EL808 microplate reader at an absorbance of 490 nm with a reference wavelength of 450 nm to determine the percentage of cell-growth inhibition by determining the absorbance of each sample relative to a negative (no inhibitor) and a no-growth control (day 0). […]

- accumulated Cu in HCT116 (HCT116 cells): 0.754 ± 0.010 μg/4 × 10^5 cells
SMILES: [Cl][Cu][Cl] [CuCl2, reference compound]
- ΔTm relative to CT-DNA (CT-DNA; 2.5 µM complex or CuCl2, CT-DNA 50 µM (ref. Tm 78.3 °C), MOPS 50 mM pH 7.4): 3.2 °C
- Tm of CT-DNA after treatment (CT-DNA; 2.5 µM complex or CuCl2, CT-DNA 50 µM, MOPS 50 mM pH 7.4, 260 nm, 0.5 °C/min, Cu(II):peptide 1:1.05): 81.5 °C
